{"source": "patent US8685928B2", "about": "“Antagonists of MUC1” (Dana-Farber Cancer Institute, Inc., priority 2010, dated 2014)", "key": {"[1]": {"target": "T1, norepinephrine transporter (Homo sapiens, UniProt P23975)", "T1 sequence (P23975 whole entry, species assumed)": "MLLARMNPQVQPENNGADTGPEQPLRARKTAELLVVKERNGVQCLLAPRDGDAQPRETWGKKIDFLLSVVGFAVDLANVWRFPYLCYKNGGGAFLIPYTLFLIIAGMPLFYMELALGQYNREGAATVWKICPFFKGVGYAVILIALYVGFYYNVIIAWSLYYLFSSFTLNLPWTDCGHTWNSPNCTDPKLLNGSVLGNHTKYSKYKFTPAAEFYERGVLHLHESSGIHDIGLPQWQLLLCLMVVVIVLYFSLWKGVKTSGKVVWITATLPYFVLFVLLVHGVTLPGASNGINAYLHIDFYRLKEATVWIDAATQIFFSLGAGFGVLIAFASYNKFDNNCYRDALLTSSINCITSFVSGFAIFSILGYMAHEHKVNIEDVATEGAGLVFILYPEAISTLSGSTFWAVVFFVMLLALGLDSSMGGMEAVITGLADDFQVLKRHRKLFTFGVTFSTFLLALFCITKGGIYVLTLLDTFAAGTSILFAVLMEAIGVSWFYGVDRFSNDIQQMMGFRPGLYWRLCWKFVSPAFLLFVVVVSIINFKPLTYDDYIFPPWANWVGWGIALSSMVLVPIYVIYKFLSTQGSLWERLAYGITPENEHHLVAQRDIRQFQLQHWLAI", "details": "at a concentration of 10 μM"}, "[2]": {"target": "T2, muscarinic M2 receptor (Homo sapiens, UniProt P08172)", "T2 sequence (P08172 whole entry)": "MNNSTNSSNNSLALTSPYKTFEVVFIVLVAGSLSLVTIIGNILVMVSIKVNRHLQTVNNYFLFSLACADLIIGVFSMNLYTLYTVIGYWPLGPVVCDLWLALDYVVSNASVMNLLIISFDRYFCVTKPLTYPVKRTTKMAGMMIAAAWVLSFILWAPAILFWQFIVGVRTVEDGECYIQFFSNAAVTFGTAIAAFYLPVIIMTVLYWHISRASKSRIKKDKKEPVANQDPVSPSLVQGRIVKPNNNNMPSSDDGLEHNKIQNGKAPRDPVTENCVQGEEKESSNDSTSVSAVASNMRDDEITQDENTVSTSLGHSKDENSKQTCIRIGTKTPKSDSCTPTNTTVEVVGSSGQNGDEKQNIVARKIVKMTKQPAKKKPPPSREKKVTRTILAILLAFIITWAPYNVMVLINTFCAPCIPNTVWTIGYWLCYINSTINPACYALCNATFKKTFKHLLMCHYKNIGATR", "details": "at a concentration of 10 μM"}, "[3]": {"tested_on": "ZR-75-1 human breast carcinoma xenograft", "experiment": "ZR-75-1 human breast carcinoma xenograft model, daily dosing for 21 days", "type": "in vivo, mouse", "details": "4 mg/kg IV daily for 21 days, nu/nu mice", "experimental": "Efficacy of GO-203-2c was evaluated in a ZR-75-1 human breast carcinoma xenograft model. Female nu/nu mice (20-30 g; Charles River Laboratories, Wilmington, Mass.) were injected in the thigh with 5 million ZR-75-1 cells in Matrigel suspension. Mice also received subcutaneous 17-β-estradiol pellets. When tumors reached 100-200 mm^3 in size (approximately 12-15 days after implantation), mice were split into 4 groups of 5 mice and administered the following treatments daily for 21 days: phosphate-buffered saline (PBS) IP, 1 mg/kg GO-203-2c IV, 4 mg/kg GO-203-2c IV or 4 mg/kg control peptide CP-3 IV. Each animal was sacrificed when the tumor reached the predetermined endpoint size (˜2500 mm^3) or when the animals remained tumor-free for 180 days after implantation of the tumor cells."}, "[4]": {"tested_on": "COLO-205 colon carcinoma xenograft", "experiment": "COLO-205 colon carcinoma xenograft model, daily IP", "type": "in vivo, mouse", "details": "for Tumor response: 30 mg/kg IP daily for 28 days", "experimental": "(§1) Efficacy of GO-203-2, the reduced form of GO-203-2c that is responsible for binding to and inhibiting oligomerization of MUC1-CD was evaluated in several different human tumor xenograft models. For these studies BALB/c nu/nu mice (6-7 weeks old; Charles River Laboratories, Wilmington, Mass.) were injected with 10 million COLO-205 colon carcinoma, MiaPaCa pancreatic carcinoma or SKOV3 ovarian carcinoma cells in the right thigh. When tumors reached a predetermined size (80-125 mm^3), mice were randomized into groups of 8 animals and treatment was initiated, which consisted of daily IP injection of GO-203-2 (30 mg/kg), control peptide CP-2 (30 mg/kg) or PBS vehicle control for 28 days. Mice with tumors in excess of ˜2 g or with ulcerated tumors were euthanized, as were those found in obvious distress or in a moribund condition. Mice without palpable tumors were maintained until 90 to 100 days after treatment initiation to confirm lack of re-growth. In addition, animals were weighed periodically during the treatment period and examined for clinical signs of toxicity."}, "[5]": {"tested_on": "MiaPaCa pancreatic carcinoma xenograft", "experiment": "MiaPaCa pancreatic carcinoma xenograft model, daily IP", "type": "in vivo, mouse", "details": "for Tumor response: 30 mg/kg IP daily for 28 days", "experimental": "as §1"}, "[6]": {"experiment": "Clinical signs of toxicity in xenograft-bearing mice", "type": "in vivo, mouse", "details": "30 mg/kg IP daily for 28 days", "experimental": "as §1"}, "[7]": {"tested_on": "SKOV3 ovarian carcinoma xenograft", "experiment": "SKOV3 ovarian carcinoma xenograft model, daily IP", "type": "in vivo, mouse", "details": "for Tumor response: 30 mg/kg IP daily for 28 days", "experimental": "as §1"}, "[8]": {"target": "T2, muscarinic M2 receptor", "experiment": "biochemical"}, "[9]": {"target": "adrenergic α1A receptor (Homo sapiens, UniProt P35348)", "sequence (P35348 whole entry)": "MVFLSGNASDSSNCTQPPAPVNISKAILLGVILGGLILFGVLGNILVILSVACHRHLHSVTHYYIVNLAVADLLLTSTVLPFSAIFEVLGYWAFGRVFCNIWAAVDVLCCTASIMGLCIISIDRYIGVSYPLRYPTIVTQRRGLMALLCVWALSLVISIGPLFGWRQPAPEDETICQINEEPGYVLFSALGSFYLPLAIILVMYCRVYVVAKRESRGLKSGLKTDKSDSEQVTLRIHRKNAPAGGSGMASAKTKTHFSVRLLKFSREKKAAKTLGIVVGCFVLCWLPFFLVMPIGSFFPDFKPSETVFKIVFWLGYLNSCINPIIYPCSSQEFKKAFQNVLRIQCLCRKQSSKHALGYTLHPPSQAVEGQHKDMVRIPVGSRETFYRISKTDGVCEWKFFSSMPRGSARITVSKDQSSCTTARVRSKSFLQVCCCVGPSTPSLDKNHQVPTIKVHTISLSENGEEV", "experiment": "biochemical"}, "[10]": {"tested_on": "MUC1-CD", "experiment": "MUC1-CD oligomerization in transfected HEK 293T cells, species comparison", "type": "cell-based", "details": "MUC1-CD from rat, dog and human compared", "experimental": "(§2) Studies were also conducted to confirm pharmacological relevance of the rodent and nonrodent species chosen for toxicology studies, namely the rat and dog, respectively. MUC1-CD amino acid sequence was determined to be greater than 80% identical between rat, dog and human proteins, and similar expression of MUC1 was found in stomach, intestinal and lung epithelium from the different species using immunohistochemical staining. […] The results of these studies indicate that potential MUC1-CD targets in the rat, dog and human are similar with respect to sequence, tissue expression and responsiveness to inhibition of oligomerization by GO-203-2c, and confirm pharmacological relevance of the species chosen for nonclinical safety assessment of GO-203-2c."}, "[11]": {"tested_on": "human carcinoma cell lines", "experimental": "A series of in vitro and in vivo primary pharmacodynamic studies was conducted to assess efficacy and mechanism of action of GO-203-2c in human tumor cells.\nGO-203-2 and GO-203-2c were evaluated for ability to inhibit proliferation of murine and human carcinoma cell lines in vitro. Test compound (5 μM final concentration) was added to tumor cell cultures daily for 5 to 6 days, and cell viability was determined by trypan blue dye exclusion."}, "[12]": {"target": "adrenergic α1B receptor (Homo sapiens, UniProt P35368)", "sequence (P35368 whole entry)": "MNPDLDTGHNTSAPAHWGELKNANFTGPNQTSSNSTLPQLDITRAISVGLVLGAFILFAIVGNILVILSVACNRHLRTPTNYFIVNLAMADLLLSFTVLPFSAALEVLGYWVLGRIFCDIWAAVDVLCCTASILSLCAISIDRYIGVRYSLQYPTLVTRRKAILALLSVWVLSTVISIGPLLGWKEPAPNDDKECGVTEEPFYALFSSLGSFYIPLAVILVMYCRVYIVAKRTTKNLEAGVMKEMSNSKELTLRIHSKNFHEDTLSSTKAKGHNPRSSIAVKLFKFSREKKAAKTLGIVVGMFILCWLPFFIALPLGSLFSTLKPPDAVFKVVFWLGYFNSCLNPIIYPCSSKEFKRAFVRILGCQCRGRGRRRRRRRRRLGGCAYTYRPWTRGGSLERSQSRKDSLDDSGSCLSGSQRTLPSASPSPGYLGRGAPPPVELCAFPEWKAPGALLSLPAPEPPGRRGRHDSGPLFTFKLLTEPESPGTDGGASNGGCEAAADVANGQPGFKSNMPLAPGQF", "experiment": "biochemical"}, "[13]": {"tested_on": "His-tagged MUC1-CD", "experiment": "Cell-free oligomerization of purified His-tagged MUC1-CD, species comparison", "type": "biochemical", "details": "MUC1-CD from rat, dog and human compared", "experimental": "as §2"}, "[14]": {"tested_on": "H1975 Lung cancer cells", "experiment": "Inhibition of cell proliferation, trypan blue exclusion (Table 2)", "type": "cell-based, human", "details": "5 μM peptide every day, 6-day treatment", "experimental": "(§3) Cells (ZR-75-1 breast carcinoma or H-1975 non-small cell lung carcinoma) were plated separately in 24-well plates for 24 hours prior to treatment with different peptides. The cells were then treated with 5 μM (final concentration) of different peptides every day for 4-6 days. On the day of termination, cells were washed two times with PBS and trypsinized with 0.3 ml of Trypsin/EDTA. Cell growth media was used to stop the trypsin reaction. Following washing, the cells were centrifuged and the cell pellets were re-suspended in PBS for counting in hemacytometer.\n(§4) The trypan blue dye exclusion method was used to determine the number of viable cells present in a cell suspension. Cell suspension was mixed as 1:1 with the trypan blue dye and then visually examined in a hemacytometer. A viable cell will have a clear cytoplasm whereas a non-viable/dead cell will be stained with trypan blue dye. By doing this trypan blue exclusion method, viable cell numbers were counted and percent inhibition of proliferation was then calculated comparing with untreated controls."}, "[15]": {"tested_on": "ZR-75-1 Breast cancer cells", "experiment": "Inhibition of cell proliferation, trypan blue exclusion (Table 1)", "type": "cell-based, human", "details": "5 μM peptide every day, 6-day treatment", "experimental": "as §3, §4"}, "[16]": {"target": "T3, His-tagged MUC1-CD (Homo sapiens, UniProt P15941)", "T3 construct": "contains a 72-amino acid cytoplasmic domain (MUC1-CD)", "T3 sequence (P15941 1182-1255 limits assumed)": "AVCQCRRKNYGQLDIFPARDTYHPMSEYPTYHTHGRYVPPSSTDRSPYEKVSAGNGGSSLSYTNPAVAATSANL", "experiment": "Oligomerization of purified His-tagged MUC1-CD proteins in a cell-free system", "type": "biochemical", "description": "This finding is not surprising based on a requirement for the cysteine residues in the GO-203-2 binding domain (CQCRRKN) to be available for binding with cysteine residues on the corresponding binding domain of the MUC1-CD protein."}, "[17]": {"target": "T1, norepinephrine transporter", "experiment": "biochemical"}, "[18]": {"target": "nicotinic acetylcholine α1 (bungarotoxin) receptor (Homo sapiens, UniProt P02708+P07510+Q07001)", "sequence (P07510 23-517)": "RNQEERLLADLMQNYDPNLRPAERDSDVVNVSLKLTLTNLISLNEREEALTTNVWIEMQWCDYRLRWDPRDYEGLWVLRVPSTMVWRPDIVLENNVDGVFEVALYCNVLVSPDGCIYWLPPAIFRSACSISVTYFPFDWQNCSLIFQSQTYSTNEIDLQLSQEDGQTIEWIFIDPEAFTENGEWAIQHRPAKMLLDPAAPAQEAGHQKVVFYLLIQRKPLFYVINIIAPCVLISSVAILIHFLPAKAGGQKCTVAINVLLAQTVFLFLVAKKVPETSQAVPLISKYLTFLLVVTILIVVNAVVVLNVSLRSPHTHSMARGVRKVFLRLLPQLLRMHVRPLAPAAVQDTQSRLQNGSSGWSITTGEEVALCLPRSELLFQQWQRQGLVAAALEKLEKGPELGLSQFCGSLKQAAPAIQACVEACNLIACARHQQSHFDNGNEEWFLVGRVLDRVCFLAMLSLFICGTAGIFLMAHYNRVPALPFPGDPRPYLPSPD", "sequence (P02708 21-457)": "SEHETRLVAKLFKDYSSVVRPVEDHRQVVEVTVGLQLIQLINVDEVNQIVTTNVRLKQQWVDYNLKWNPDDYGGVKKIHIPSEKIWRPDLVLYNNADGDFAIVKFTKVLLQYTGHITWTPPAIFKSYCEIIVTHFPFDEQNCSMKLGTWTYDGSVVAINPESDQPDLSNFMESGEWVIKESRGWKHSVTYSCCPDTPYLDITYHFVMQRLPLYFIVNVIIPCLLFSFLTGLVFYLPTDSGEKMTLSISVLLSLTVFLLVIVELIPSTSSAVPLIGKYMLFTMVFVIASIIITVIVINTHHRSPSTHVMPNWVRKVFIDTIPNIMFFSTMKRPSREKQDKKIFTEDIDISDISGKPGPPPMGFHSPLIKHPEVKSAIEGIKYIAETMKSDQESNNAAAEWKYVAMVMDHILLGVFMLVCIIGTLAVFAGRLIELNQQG", "sequence (Q07001 22-517)": "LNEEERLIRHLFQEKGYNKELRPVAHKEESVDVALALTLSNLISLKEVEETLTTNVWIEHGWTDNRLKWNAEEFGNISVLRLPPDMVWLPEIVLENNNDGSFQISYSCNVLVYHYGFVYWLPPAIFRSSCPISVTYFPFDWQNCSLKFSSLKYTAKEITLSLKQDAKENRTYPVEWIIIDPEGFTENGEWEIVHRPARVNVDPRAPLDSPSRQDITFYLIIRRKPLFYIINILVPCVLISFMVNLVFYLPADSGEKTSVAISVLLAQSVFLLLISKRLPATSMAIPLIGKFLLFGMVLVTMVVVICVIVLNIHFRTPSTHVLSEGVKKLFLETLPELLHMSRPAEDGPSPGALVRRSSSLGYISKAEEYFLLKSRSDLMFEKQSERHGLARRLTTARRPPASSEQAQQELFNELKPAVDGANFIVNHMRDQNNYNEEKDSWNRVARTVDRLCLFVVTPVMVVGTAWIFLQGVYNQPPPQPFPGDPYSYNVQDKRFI", "sequence (P11230 24-501, further chain)": "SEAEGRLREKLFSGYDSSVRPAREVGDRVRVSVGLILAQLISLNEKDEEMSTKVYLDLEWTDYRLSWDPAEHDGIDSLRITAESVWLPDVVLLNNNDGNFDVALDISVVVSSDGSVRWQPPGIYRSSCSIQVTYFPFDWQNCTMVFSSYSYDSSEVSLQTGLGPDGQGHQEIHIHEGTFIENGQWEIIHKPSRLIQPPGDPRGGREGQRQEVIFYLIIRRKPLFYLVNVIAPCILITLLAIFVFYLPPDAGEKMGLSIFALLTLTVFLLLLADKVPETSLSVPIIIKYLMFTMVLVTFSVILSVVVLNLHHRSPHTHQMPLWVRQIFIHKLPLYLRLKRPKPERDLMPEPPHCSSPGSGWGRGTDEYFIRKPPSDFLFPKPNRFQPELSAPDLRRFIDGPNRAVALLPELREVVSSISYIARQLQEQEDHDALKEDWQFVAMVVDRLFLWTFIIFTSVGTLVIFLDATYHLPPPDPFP", "experiment": "biochemical"}, "[19]": {"details": "up to 90 to 100 days post treatment initiation"}}, "note": "Non-standard residues stand in square brackets, D forms with d. Residues, ends and D or L forms follow the SMILES beside them."}
{"compound": "CP-3: control peptide containing AQA instead of CQC amino acid sequence in the binding domain (RRRRRRRRRCQCRRKN) [reference compound]", "values": [{"measurement": "% inhibition of radioligand binding", "setting": "[1]", "value": 79, "unit": "%"}, {"measurement": "% inhibition of radioligand binding", "setting": "[2]", "value": 55, "unit": "%"}, {"measurement": "Tumor response", "setting": "[3]", "value": "ineffective"}, {"measurement": "Tumor response", "setting": "[3]; listed as CP3", "value": "no effect on tumor growth"}]}
{"compound": "C[C@@H](NC(=O)[C@@H](CCC(N)=O)NC(=O)[C@@H](C)NC(=O)[C@@H](CCCNC(=N)N)NC(=O)[C@@H](CCCNC(=N)N)NC(=O)[C@@H](CCCNC(=N)N)NC(=O)[C@@H](CCCNC(=N)N)NC(=O)[C@@H](CCCNC(=N)N)NC(=O)[C@@H](CCCNC(=N)N)NC(=O)[C@@H](CCCNC(=N)N)NC(=O)[C@@H](CCCNC(=N)N)NC(=O)[C@H](N)CCCNC(=N)N)C(=O)N[C@H](CCCNC(=N)N)C(=O)N[C@H](CCCNC(=N)N)C(=O)N[C@H](CCCCN)C(=O)N[C@H](CC(N)=O)C(=O)O", "note": "[CP-2, reference compound] (H-[dR][dR][dR][dR][dR][dR][dR][dR][dR][dA][dQ][dA][dR][dR][dK][dN]-OH)", "values": [{"measurement": "Tumor response", "setting": "[4]", "value": "without effect"}, {"measurement": "Tumor response", "setting": "[5]", "value": "without effect"}, {"measurement": "Side effects of treatment (weight, clinical signs of toxicity)", "setting": "[6]", "value": "no observable side effects"}, {"measurement": "Tumor response", "setting": "[7]", "value": "without effect"}]}
{"compound": "CC(=O)N[C@H](CCCNC(=N)N)C(=O)N[C@H](CCCNC(=N)N)C(=O)N[C@H](CCCNC(=N)N)C(=O)N[C@H](CCCNC(=N)N)C(=O)N[C@H](CCCNC(=N)N)C(=O)N[C@H](CCCNC(=N)N)C(=O)N[C@H](CCCNC(=N)N)C(=O)N[C@H](CCCNC(=N)N)C(=O)N[C@H](CCCNC(=N)N)C(=O)N[C@H](CS)C(=O)N[C@H](CCC(N)=O)C(=O)N[C@H](CS)C(=O)N[C@H](CCCNC(=N)N)C(=O)N[C@H](CCCNC(=N)N)C(=O)N[C@H](CCCCN)C(=O)N[C@H](CC(N)=O)C(N)=O", "note": "[GO-203-2] (Ac-[dR][dR][dR][dR][dR][dR][dR][dR][dR][dC][dQ][dC][dR][dR][dK][dN]-NH2)", "values": [{"measurement": "IC50", "setting": "[8]", "value": "3 to 8", "unit": "µM"}, {"measurement": "IC50", "setting": "[9]", "value": "3 to 8", "unit": "µM"}, {"measurement": "Tumor response", "setting": "[4]", "value": "complete tumor growth arrest and regression"}, {"measurement": "Recurrence of tumors", "setting": "[4]; [19]", "value": "no evidence of recurrence"}, {"measurement": "Tumor response", "setting": "[5]", "value": "complete growth arrest and regression"}, {"measurement": "Recurrence of tumors", "setting": "[5]; [19]", "value": "no evidence of recurrence"}, {"measurement": "Inhibition of MUC1-CD oligomerization", "setting": "[10]", "value": "in an equivalent manner"}, {"measurement": "50% inhibition (IC50) of proliferation", "setting": "[11]", "value": "5 to 11", "unit": "µg/mL"}, {"measurement": "IC50", "setting": "[11]", "value": "2 to 5", "unit": "µM"}, {"measurement": "IC50", "setting": "[12]", "value": "3 to 8", "unit": "µM"}, {"measurement": "Inhibition of oligomerization of purified His-tagged MUC1-CD", "setting": "[13]", "value": "inhibited"}, {"measurement": "Avg (viable cell number of Groups 1-3)", "setting": "[14]", "value": 6.66}, {"measurement": "% inhibition", "setting": "[14]; vs untreated control", "value": 63.64, "unit": "%"}, {"measurement": "Group-1 (viable cell number, individual well)", "setting": "[14]; well having 10,000 cells", "value": 6.23}, {"measurement": "Group-2 (viable cell number, individual well)", "setting": "[14]; well having 10,000 cells", "value": 6.34}, {"measurement": "Group-3 (viable cell number, individual well)", "setting": "[14]; well having 10,000 cells", "value": 7.42}, {"measurement": "Avg (viable cell number of Groups 1-3)", "setting": "[15]", "value": 8.06}, {"measurement": "% inhibition", "setting": "[15]; vs untreated control", "value": 65.49, "unit": "%"}, {"measurement": "Group-1 (viable cell number, individual well)", "setting": "[15]; well having 10,000 cells", "value": 7.14}, {"measurement": "Group-2 (viable cell number, individual well)", "setting": "[15]; well having 10,000 cells", "value": 9.38}, {"measurement": "Group-3 (viable cell number, individual well)", "setting": "[15]; well having 10,000 cells", "value": 7.67}, {"measurement": "Inhibition of MUC1-CD oligomerization, reduced vs oxidized form", "setting": "[16]", "value": "much more effective"}, {"measurement": "IC50", "setting": "[17]", "value": "3 to 8", "unit": "µM"}, {"measurement": "IC50", "setting": "[18]", "value": "3 to 8", "unit": "µM"}, {"measurement": "Side effects of treatment (weight, clinical signs of toxicity)", "setting": "[6]", "value": "no observable side effects"}, {"measurement": "Tumor response", "setting": "[7]", "value": "complete tumor growth arrest and regression"}, {"measurement": "Recurrence of tumors", "setting": "[7]; [19]", "value": "no evidence of recurrence"}]}
